The text below walks through data of patent US7993660B2, “Method of increasing immunological effect” (IRx Therapeutics, Inc., priority 2007, dated 2011).

Where a SMILES comes first, the peptide text is derived from it. The star is where a group is joined. Cbz = O=C(OCc1ccccc1)*; CH2F = FC*

The subject of experiment [1] is activated peripheral blood CD8+ T-lymphocytes. As to the kind of experiment: Caspase activation (FITC-VAD-FMK staining, flow cytometry) in activated primary CD8+ T cells. The experiment is classed as cell-based, human. The conditions noted are these: for inhibition of PCI-13/FasL-MV-induced apoptosis (caspase-VAD-FITC binding): CD8+, IRX-2 1:3 or IL-7, IL-15 100 ng/mL 24 hours, MV 15 μg 24 hours; for mean % of FITC-VAD-FMK+ cells ± SD: CD8+ cells, 24 hours pre-incubation (IRX-2 1:3, IL-2 100 IU/mL, IL-7/IL-15 10 ng/mL). The source says:
(§1) The head and neck squamous cell carcinoma (H&NSCC) cell line […] was established in Applicants' laboratory and maintained as previously described. It was retrovirally transfected with the human FasL gene obtained from Dr. S. Nagata (Osaka Biosciences Institute, Osaka, Japan) as previously reported. Supernatants of transfected PCI-13-cells (PCI-13-FasL), which contained both sFasL and the 42 kDa membranous form of FasL, were used as a source of tumor-derived microvesicles (MV). Jurkat cells were obtained from American Tissue Culture Collection (ATCC, Manassas, Va.) and were transfected with CD8. The CD8+ Jurkat cells were cultured in RPMI 1640 medium supplemented with 10% (v/v) fetal bovine serum (FBS), L-glutamine and antibiotics. Human T lymphocytes were isolated from peripheral blood mononuclear cells (PBMC) obtained from consented normal donors. PBMC were isolated by Ficoll-Hypaque density gradient centrifugation (GE Healthcare Bio-Sciences Corp., Piscataway, N.J.), washed and plated for 1 hour at 37° C. in culture flasks (T162) in an atmosphere of 5% CO2 to remove CD14+ monocytes. The non-adherent T-lymphocyte fraction was collected and immediately used for experiments or cryopreserved. CD8+ T cells or CD4+ T cells were purified by positive selection using CD8 MicroBeads or CD4 MicroBeads, respectively (Miltenyi Biotec, Auburn, Calif.) using the AutoMACS system according to the manufacturer's instructions. Purified CD8+ or CD4+ T cells were then cultured for 2-3 days in AIM V medium supplemented with 10% FBS in the presence of beads coated with anti-CD3 and anti-CD28 antibodies (T Cell Activation/Expansion Kit, Miltenyi Biotec). All cells used for the above described experiments were in the log phase of growth.
(§2) CD8+ Jurkat cells or activated normal T lymphocytes were plated at 0.3×10^6 cells per well in a 96-well plate and pre-treated or not with IRX-2 or with recombinant human cytokines at a final concentration of 10 ng/mL or 100 IU/mL for 24 hours (unless otherwise noted). MV (10 μg protein per 0.3×10^6 cells) were then added for 3-24 hours. In some experiments, cells were first co-incubated with MV for 3-24 hours, then washed and treated further with IRX-2 or cytokines or treated for the indicated time period with MV and IRX-2 added simultaneously. In selected blocking experiments, anti-Fas neutralizing monoclonal antibody, ZB-4, the pan-caspase inhibitor, Z-VAD-FMK, or the specific Akt-inhibitor or specific inhibitors for caspase-3, caspase-8 and caspase-9 were added at the indicated concentrations prior to MV co-incubation.
(§3) Four color flow cytometry was performed using a […] (Beckman Coulter) equipped with Expo32 software (Beckman Coulter). Lymphocytes were gated based on morphology, and debris, MV as well as monocytes and granulocytes were excluded, collecting data on at least 10^5 cells. For the analysis of activated primary T lymphocytes, gates were restricted to the CD3^+CD8^+ or CD3^+CD4^+ T-cell subsets. Data was analyzed using Coulter EXPO 32vl.2 analysis software.
(§4) Total cellular Caspase activity was tested by intracellular staining of activated caspases using a pan caspase inhibitor, CASPACE FITC-VAD-FMK In Situ Marker (Promega, Madison, Wis.). Cells were resuspended in PBS and FITC-VAD-FMK was added at a final concentration of 5 μM. The cells were incubated for 20 minutes at 37° C., 5% CO2 and washed with PBS. Then cells were stained for cell surface receptors, fixed with 1% paraformaldehyde and analyzed by flow cytometry. The specific activation of caspase-3 and caspase-7 was measured using the VYBRANT FAM caspase-3 and -7 Assay Kit from Invitrogen (Carlsbad, Calif.) according to the manufacturers' instructions. Briefly, cells were resuspended in PBS and stained with a 150× dilution of the carboxyfluorescein (FAM)-labeled FMK-caspase inhibitor for 60 minutes at 37° C., 5% CO2. Then the cells were washed in wash buffer and fixed with 1% paraformaldehyde.
(In general: A flow cytometer gives signals particle by particle.)

The subject of experiment [2] is activated peripheral blood CD4+ T-lymphocytes. Kind of experiment: Caspase activation (FITC-VAD-FMK staining, flow cytometry) in activated primary CD4+ T cells. The experiment is classed as cell-based, human. The conditions noted are these: for inhibition of PCI-13/FasL-MV-induced apoptosis (caspase-VAD-FITC binding): CD4+, IRX-2 1:3 or IL-7, IL-15 100 ng/mL 24 hours, MV 15 μg 24 hours; for mean % of FITC-VAD-FMK+ cells ± SD: CD4+ cells, 24 hours pre-incubation (IRX-2 1:3, IL-2 100 IU/mL, IL-7/IL-15 10 ng/mL).
From the text: as §1, §2, §3, §4

Experiment [3] relates to CD8+ Jurkat cells. The experiment is classed as cell-based. As to conditions: 24 hours pre-treatment (IRX-2 1:3; IL-7, IL-15 10 ng/mL), PCI-13/FasL-MV 15 μg 3 hours; no IRX-2 lane 50%. As for the experimental part: as §2
Total cellular Caspase activity was tested by intracellular staining of activated caspases using a pan caspase inhibitor, CASPACE FITC-VAD-FMK In Situ Marker (Promega, Madison, Wis.). […] Then cells were stained for cell surface receptors, fixed with 1% paraformaldehyde and analyzed by flow cytometry. The specific activation of caspase-3 and caspase-7 was measured using the VYBRANT FAM caspase-3 and -7 Assay Kit from Invitrogen (Carlsbad, Calif.) according to the manufacturers' instructions. […]

The subject of another experiment is caspase-3 and caspase-7. Kind of experiment: Caspase-3/-7 activation (caspase 3/7-FAM flow cytometry, Western immunoblot) in CD8+ Jurkat cells. It is filed as cell-based, human. The conditions noted are these: IRX-2 1:3 24 hours pre-treatment; zVAD 20 μM; ZB4 10 μg/mL; MV 10 μg 3 hours. As for the experimental part: To determine total or phosphorylated forms of Akt, Bcl-2, CD3ζ, caspase-3, JAK3, STAT5, FLIP, and Mcl-1, Jurkat CD8+ cells or purified activated CD8+ or CD4+ T-cells were co-incubated with MV at the indicated concentration and/or with IRX-2 (1:3 final dilution) for the indicated period of time at 37° C. The cells were then washed, centrifuged at 4° C. and lysed in equal volumes of ice-cold lysis-buffer (50 mM Tris-HCL pH 7.5, 150 mM NaCl, 0.5% Nonidet P-40) and protease inhibitor cocktail (Pierce Chemical Co., Rockford, Ill.). After lysis, the homogenates were clarified by centrifugation. The supernatants were isolated, and boiled for 5 minutes in 5× Laemmli sample buffer. […]
Total cellular Caspase activity was tested by intracellular staining of activated caspases using a pan caspase inhibitor, CASPACE FITC-VAD-FMK In Situ Marker (Promega, Madison, Wis.). […] Then cells were stained for cell surface receptors, fixed with 1% paraformaldehyde and analyzed by flow cytometry. The specific activation of caspase-3 and caspase-7 was measured using the VYBRANT FAM caspase-3 and -7 Assay Kit from Invitrogen (Carlsbad, Calif.) according to the manufacturers' instructions. […] The cells were analyzed by flow cytometry with the fluorescein measured on the FL1 channel. […]

For experiment [4], the system named is CD8+ Jurkat cells. Kind of experiment: Loss of mitochondrial membrane potential (JC-1) in CD8+ Jurkat cells. The conditions noted are these: IRX-2 1:3 24 hours pre-treatment, MV 10 μg 24 hours. The experiment is classed as cell-based, human. The protocol: The loss of mitochondrial membrane potential (MMP) as a hallmark of apoptosis was measured using the MITOPROBE JC-1 Assay Kit from Invitrogen (Carlsbad, Calif.). The cationic dye JC-1 (5,5′, 6,6′-tetrachloro-1,1′, 3,3′-tetraethylbenzimidazolylcarbocyanine iodide) exists in healthy cells as a green monomer in the cytosol and also accumulates as red aggregates in the mitochondria. In apoptotic and necrotic cells, JC-1 remains only in the cytoplasm due to mitochondrial depolarization, which can be detected by flow cytometry as a decrease in the red/green fluorescence intensity ratio. CD8+ Jurkat cells or activated T lymphocytes were incubated in PBS containing 2 μM of JC-1 for 30 minutes at 37° C., 5% CO2. […] The cells were analyzed using a flow cytometer immediately after staining.
CD8+ Jurkat cells were analyzed by flow cytometry for a decrease in red fluorescence of the cationic dye JC-1, indicating a loss of MMP. Percentage of JC-1 red-negative cells were determined in cultures of CD8+ Jurkat cells after no treatment, 24 hours treatment with MV (10 μg) alone (no IRX) or pre-treated for 24 hours with IRX-2 (1:3 dilution) or MV in combination with the apoptosis-inhibitor Z-VAD-FMK (pan-caspase inhibitor; conc) or ZB4 (anti-Fas neutralizing mAb, conc/dose). […]

The mark [5] stands for this setting: Table 2A MV-induced apoptosis, then 10 μg MV 24 hours.
[6] abbreviates: Table 2B CH-11 Ab-induced apoptosis, then 400 ng/mL CH-11 Ab 24 hours.

For “IL-7: human recombinant survival cytokine, purchased from Peprotech”, the “inhibition of PCI-13/FasL-MV-induced apoptosis (caspase-VAD-FITC binding)” value in experiment [1] and in experiment [2] was “similarly effective compared to IRX-2” in each case. Moreover, the “mean % of FITC-VAD-FMK+ cells ± SD” value came out at 49.5 ± 3.5% in experiment [1] (setting [5]), 37.7 ± 1.4% in experiment [1] (setting [6]), 34.5 ± 1.9% in experiment [2] (setting [5]) and 31.8 ± 10.6% in experiment [2] (setting [6]). The “apoptotic cells (activated caspase-VAD-FITC binding CD8+ Jurkat cells)” value with CD8+ Jurkat cells [3] is listed as “neither IL-7 nor IL-15 alone was able to reduce the level of apoptosis below the control MV-induced level”.
As for “IL-15: human recombinant survival cytokine, purchased from Peprotech”, the “inhibition of PCI-13/FasL-MV-induced apoptosis (caspase-VAD-FITC binding)” value in experiment [1] and in experiment [2] was “similarly effective compared to IRX-2” throughout. For the same molecule, the “mean % of FITC-VAD-FMK+ cells ± SD” value stood at 16.8 ± 6.2% in experiment [1] (setting [5]), 28.8 ± 3.1% in experiment [1] (setting [6]), 16.7 ± 2.1% in experiment [2] (setting [5]) and 21.1 ± 5.3% in experiment [2] (setting [6]). For the same molecule, the “apoptotic cells (activated caspase-VAD-FITC binding CD8+ Jurkat cells)” value in the experiment on CD8+ Jurkat cells [3] was “neither IL-7 nor IL-15 alone was able to reduce the level of apoptosis below the control MV-induced level”.
As to `COC(=O)C[C@H](NC(=O)[C@H](C)NC(=O)[C@@H](NC(=O)OCc1ccccc1)C(C)C)C(=O)CF` [zVAD] (Cbz-Val-Ala-Asp(OMe)-CH2F), the “MV-induced induction of caspase-3 and -7 activity (caspase-3/-7-FAM MFI)” value in the experiment on caspase-3 and caspase-7 is “completely prevented”. The “MV-induced loss of mitochondrial membrane potential (JC-1 red-negative cells)” value in the experiment with CD8+ Jurkat cells [4] was “block was comparable to that provided by the two inhibitors”.
